The subject of experiment [1] is gastrointestinal transit in rats. Nature of the experiment: Gastrointestinal transit (charcoal motility) in rats, alone or before morphine. The format is in vivo, rat. As to conditions: for Mean Motility: ratio of length of charcoal transit/total intestine length, * p<0.05 vs vehicle. The method, then: F. et al J. Pharmacol. Exptl. Therap. 133: 400-408, 1961; D. E. Gmerek, et al J. Pharmacol. Exptl. Ther. 236: 8-13, 1986; and O. Yamamoto et al Neurogastroenterol. Motil. 10: 523-532, 1998.
A control group of rats received 2 mL/kg of a 0.9% saline solution (n=10). After 15 minutes, rats were subcutaneously injected with saline (1 mL/kg) or morphine (3 mg/kg). A 10% suspension of activated charcoal in 0.25% methylcellulose was administered orally at 10 mL/kg to the rats 20 minutes (±2 minutes) after the subcutaneous dose of morphine or saline. The rats were euthanized 25 minutes (±3 minutes) after receiving the charcoal and the intestines were removed and lightly stretched on moist paper along a meterstick. The small intestine from pyloric sphincter to caecum was measured and the distance traveled by the charcoal as a fraction of that length was evaluated for each rat.
Statistically significant effects were determined by ANOVA with Tukey HSD Multiple Comparison Test. Differences with p values <0.05 were considered statistically significant.
Values for charcoal motility were expressed as a percent effect and were calculated in the following manner: The individual distance traveled by the charcoal in centimeters was divided by the total length of the intestines in centimeters (pyloric sphincter to caecum) for each rat. Mean values were calculated for each group, and the percent effect was calculated using the following formula: […]

The target in experiment [2] is μ-opioid receptors in the guinea pig ileum (Cavia porcellus, UniProt A0ACM8Q262). As to the kind of experiment: Guinea pig ileum bioassay, test for agonist activity (inhibition of electrically evoked twitch contractions). As to conditions: mean, n=2; for Response to the compound (decrease in twitch contraction amplitude): percent of control response to DAMGO 1.0E−07 M. How it is done:
Experimental Conditions. Segments of guinea pig terminal ileum were suspended in 20-ml organ baths filled with an oxygenated (95% O2 and 5% CO2) and pre-warmed (37° C.) physiological salt solution of the following composition (in mM): NaCl 118.0, KCl 4.7, MgSO4 1.2, CaCl2 2.5, KH2PO4 1.2, NaHCO3 25.0 and glucose 11.0 (pH 7.4). Additional experimental conditions were as described in Hutchinson et al. (1975) Brit. J. Pharmacol., 55: 541-546.
Indomethacin (1 μM), nor-binaltorphimine (0.01 μM), methysergide (1 μM), ondansetron (10 μM) and GR113808 (0.1 μM) were also present throughout the experiments to prevent prostanoid release and to block the k-opioid, 5-HT2, 5-HT3 and 5-HT4 receptors, respectively. The tissues were connected to force transducers for isometric tension recordings. They were stretched to a resting tension of 1 g then allowed to equilibrate for 60 min during which time they were washed repeatedly and the tension readjusted. Thereafter, they were stimulated electrically with pulses of minimal intensity to trigger maximal contractions and 1 ms duration, delivered at 0.1 Hz by a constant current stimulator.
Test for agonist activity. […] The different concentrations were added cumulatively and each was left in contact with the tissues until a stable response was obtained or for a maximum of 15 min.
Analysis and Expression of Results. The parameter measured was the maximum change in the amplitude of the electrically-evoked twitch contractions induced by each compound concentration.

The target of experiment [3] is T1, human μ (mu, MOP) receptor (Homo sapiens, UniProt P35372).
T1 construct: expressed in transfected cells; host or cells: CHO cells
T1 sequence (P35372 whole entry): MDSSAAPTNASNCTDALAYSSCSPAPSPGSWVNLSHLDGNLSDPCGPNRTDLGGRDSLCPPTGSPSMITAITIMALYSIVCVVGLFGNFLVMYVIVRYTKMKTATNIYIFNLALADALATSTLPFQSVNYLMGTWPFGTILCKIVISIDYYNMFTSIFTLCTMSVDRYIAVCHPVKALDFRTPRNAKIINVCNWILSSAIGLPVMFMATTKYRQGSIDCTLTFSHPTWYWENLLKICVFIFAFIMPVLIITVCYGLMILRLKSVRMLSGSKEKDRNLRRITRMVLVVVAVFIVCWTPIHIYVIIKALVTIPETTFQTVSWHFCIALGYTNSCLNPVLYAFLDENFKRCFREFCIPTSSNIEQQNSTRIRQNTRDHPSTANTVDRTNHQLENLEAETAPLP
Nature of the experiment: cAMP assay in CHO cells expressing human mu receptor, agonist assay. It counts as cell-based. Background: cAMP levels reflect the balance of adenylyl cyclase and phosphodiesterase activity.

Setting [4] is: 1 mg/kg sc + Morphine 3 mg/kg sc.
[5] abbreviates: 3 mg/kg sc + Morphine 3 mg/kg sc.
[6] abbreviates: 10 mg/kg sc + Morphine 3 mg/kg sc.

Here are results for three molecules from US7563899B2, “(S)-N-methylnaltrexone” (Progenics Pharmaceuticals, Inc., priority 2005, dated 2009).

Chain of μ-opioid receptors in the guinea pig ileum (A0ACM8Q262 1-400): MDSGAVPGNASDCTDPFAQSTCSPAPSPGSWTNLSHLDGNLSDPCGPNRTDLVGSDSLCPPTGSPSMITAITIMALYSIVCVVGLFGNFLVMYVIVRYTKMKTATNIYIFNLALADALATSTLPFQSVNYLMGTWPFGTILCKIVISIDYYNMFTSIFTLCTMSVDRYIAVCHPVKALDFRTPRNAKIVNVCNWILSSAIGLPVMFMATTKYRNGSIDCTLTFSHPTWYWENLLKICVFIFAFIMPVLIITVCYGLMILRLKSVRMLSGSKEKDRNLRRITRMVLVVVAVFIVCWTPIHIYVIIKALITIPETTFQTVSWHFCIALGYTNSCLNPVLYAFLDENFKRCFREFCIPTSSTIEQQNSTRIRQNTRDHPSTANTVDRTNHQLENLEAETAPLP

Turning to `C[N+]1(CC2CC2)CC[C@]23c4c5ccc(O)c4O[C@H]2C(=O)CC[C@@]3(O)[C@H]1C5` (stereo partly drawn) [R-MNTX, (R)-N-methylnaltrexone], the “Percent Decrease” value amounted to 24% in experiment [1] (setting [4]), 8% in experiment [1] (setting [5]), 8% in experiment [1] (setting [6]) and 6% in experiment [1] (10 mg/kg sc + Saline). Moreover, the “Mean Motility” value in experiment [1] (setting [4]) is recorded as 0.463*; in experiment [1] (setting [5]), 0.558; in experiment [1] (setting [6]), 0.557; in experiment [1] (10 mg/kg sc + Saline) it was 0.572. The “effect on GI transit in combination with / prior to morphine” value in experiment [1] (rats, sc, 15 minutes before morphine 3 mg/kg) is “reversed the GI slowing effect of morphine”. Besides, the “effect on GI transit when administered alone” value in experiment [1] (rats, sc) is given as “no effect on GI transit”.
In the case of `C[C@@H](NC(=O)[C@@H](N)Cc1ccc(O)cc1)C(=O)NCC(=O)N(C)[C@@H](Cc1ccccc1)C(=O)NCCO` [DAMGO, reference compound], the “Response to the compound (decrease in twitch contraction amplitude)” value in experiment [2] (1.0E−07 M) is 99%; in experiment [2] (1.0E−08 M), 49%; in experiment [2] (1.0E−09 M), 12%. In addition, the “Response to the compound +naloxone” value in experiment [2] (compound 1.0E−07 M + naloxone 1.0E−07 M, percent of control response to DAMGO) is 3%. The “cAMP agonist assay value (Table IX.1)” value in experiment [3] (log{M} conc −4.0) is −1; in experiment [3] (log{M} conc −5.0), 2; in experiment [3] (log{M} conc −6.0), 1; in experiment [3] (log{M} conc −7.0) it was 2; in experiment [3] (log{M} conc −8.0), 68; in experiment [3] (log{M} conc −9.0) it was 63. The “cAMP agonist assay value (Table IX.1)” value was 88 in experiment [3] (log{M} conc −10.0) and 105 in experiment [3] (log{M} conc −11.0).
Turning to `CN1CC[C@]23c4c5ccc(O)c4O[C@H]2[C@@H](O)C=C[C@H]3[C@H]1C5` [Morphine, morphine], in experiment [1] (Saline + Morphine 3 mg/kg sc), the “Percent Decrease” value stood at 33% and the “Mean Motility” value is reported as 0.407*. Further, the “effect on GI transit when administered alone” value in experiment [1] (rats, sc) was “decreased GI motility”.
